Reference: patent US4620871A (priority 1980, dated 1986)
Read-outs that look alike come from different tables or passages of the source.

Tests used:
Tobacco callus = experiment: Growth of tobacco callus vs kinetin (Example 14); type: cell-based; conditions: 2 ppm active agent
Procedure: An untreated culture medium served as control. Tobacco callus was grown on the treated and untreated culture media (incubation period: 3 weeks), and the daily growth, the increase in cell number and the frequency of mitosis were measured according to the method of Skoog.
The test described in Example 13 was repeated so that a culture medium containing 1 ppm of kinetin was used as control, and the compositions according to the invention were applied in amounts corresponding to 2 ppm of active agent.

Barley = experiment: Inhibition of the decomposition of chlorophyll in barley leaf segments; conditions: 4 days dark
Procedure: (§1) The active agent to be tested was dissolved in distilled water to form a 200 ppm solution, and leaf segments of the plants under examination, weighing 200 mg, were floated on the surface of the solution for 4 days in the dark. Thereafter chlorphyll was extracted from the leaf segments with methanol.
(§2) To determine the starting state, chlorophyll was extracted with methanol from untreated leaf segments weighing 200 mg. In the control test the leaf segments, weighing 200 mg, were floated on the surface of distilled water for 4 days in the dark, and then chlorophyll was extracted from the leaf segments with methanol.
(§3) The chlorophyll concentration was determined by measuring the extinction of the extracts at 665 mμ.

Bean = experiment: Inhibition of the decomposition of chlorophyll in bean leaf segments; conditions: 4 days dark
Procedure: as §1, §2, §3

Soybean [1] = experiment: Stimulation of photosynthesis, 14CO2 incorporation, soybean leaf discs (Example 20); conditions: Glycine max, foliar, 2 hours
Procedure: The compositions according to the invention were diluted with distilled water to an active agent content of 200 ppm, and leaf discs of alfalfa, soybean, bean and maize, weighing 200 mg each, were floated on the surfaces of the resulting solutions for 2 hours. Thereafter the treated leaf discs were place into the assimilation chamber of an appropriate measuring apparatus, and a known amount of radioactive carbon dioxide gas (^14 CO2) was introduced into the assimilation chamber from a reservoir by means of a gas feeder for 0.5 hours under carefully controlled illumination conditions. Thereafter the leaf discs were frozen with liquid nitrogen, triturated with 50% by weight perchloric acid in a potter homogenizer, and stock solutions were prepared from the resulting mixtures. The specific radioactivities of the stock solutions were determined by liquid scintillation.
(§4) In the control test untreated leaf discs were exposed to labelled carbon, dioxide, and the amount of carbon dioxide incorporated under such conditions was regarded as standard.

Maize [2] = experiment: Stimulation of photosynthesis, 14CO2 incorporation, maize leaf discs (Example 20); conditions: Zea mays, foliar, 2 hours
Procedure: The specific radioactivities of the stock solutions were determined by liquid scintillation.
as §4

maize for silage = experiment: Maize for silage field tests 1979, Boly (Example 28); type: in vivo
Source text: The effects of the cytokinin-like regulators on the crop yield, crude protein content and real protein content of maize for silage, observed under field conditions in the tests performed in 1979 at the Agricultural Combinate of Boly, Hungary, are listed in Table 20.

hybrid maize = experiment: Grain yield of maize (Example 29); type: in vivo; conditions: for Grain yield, increase: in vivo; for Grain yield: seed dressing 0.5 kg/ha + sprays 3, 1, 2 kg/ha, control 132.8
Procedure: The compositions according to the invention were applied as seed dressing agents onto the sowing-seeds of hybrid maize in a dosis of 0.5 kg/ha. The powdery compositions were wetted with water prior to application. The stand was sprayed three times during the cultivation period: first at the four-leaves development stage with a dosis of 3 kg/ha, then prior to tasseling with a dosis of 1 kg/ha, and finally prior to pollen ripening with a dosis of 2 kg/ha. The crop was evaluated as May shelled corn.

[3] = test system: Egri leanyka vine variety; experiment: Berry yield and sugar content of vine, Egri leanyka (Example 33); type: in vivo; conditions: for Berry yield: 3 x 2 kg/ha, control 151.15; for Sugar content: control 16.7; for Sugar yield: control 18.93
Procedure: Vine stands were sprayed with the compositions according to the invention to examine their effects exerted on the berry yield and sugar content. The compositions, diluted with water, were sprayed three times onto the plants. The first treatment was performed prior to flowering, the second one three weeks later, and the third one six weeks after the first one. The dose applied was 2 kg/ha in each of the treatments.
Comparative tests were also performed with commonly used growth regulating compositions, i.e. CCC (chlorocholine chloride), Ethrel (or Etefon; 2-chloroethylphosphonic acid) and Nevirol (N-phenyl-phthalaiminic acid). The results were compared to those observed with the untreated controls.
Two vine varieties, Pannonia and Egri leanyka, were involved in the tests.

[4] = test system: Edible beans (Superelite variety); experiment: Crop yield of edible beans (Example 35); type: in vivo; conditions: for Crop yield: control 15.00
Source text: Edible beans (Superelite variety) were sprayed once or twice with the compositions according to the invention.
From the data of Table 29 conclusions can be drawn for the correlation between the development stage of the stand at treatment and the effect of the treatment.

Soybean [5] = experiment: Total and protein nitrogen content of soybean (Example 39); type: in vivo
Source text: The effects of 1,4-dihydroxyphthalazine and salts thereof exerted on the total nitrogen content and protein nitrogen content of soybean were examined as described in Example 27. The plants were sprayed with the compositions according to the invention at the beginning of the flowering of the apical cluster.

Alfalfa = experiment: Inhibition of the decomposition of chlorophyll in alfalfa; conditions: 200 ppm, 100 mg green plant, control 0.78
Procedure: as §2, with “Thereafter chlorphyll was extracted from the leaf segments with methanol. To” for “To”, “methanol. […] For alfalfa and maize the chlorphyll contents of 100 mg of green plant were examined.” for “methanol.”

Maize [6] = experiment: Inhibition of the decomposition of chlorophyll in maize; conditions: 200 ppm, 100 mg green plant, control 0.65
Procedure: as §2, with “Thereafter chlorphyll was extracted from the leaf segments with methanol. To” for “To”, “methanol. […] For alfalfa and maize the chlorphyll contents of 100 mg of green plant were examined.” for “methanol.”

maize leaves = experiment: Fixation of 14CO2 in maize leaves (Example 36); conditions: 18 hours
Procedure: (§5) The biological activities of cytokinin-like factors can be well characterized by measuring the intensity of the photosynthetic carbon dioxide fixation and the incorporation of labelled amino acids into the TCA-insoluble protein fraction. The intensity of photosynthetic carbon dioxide fixation was determined on maize leaves, utilizing ^14 CO2, whereas the incorporation of amino acids was examined on bean leaves, utilizing […]-^14 C.

bean leaves = experiment: Incorporation of Gly-2-14C in bean leaves (Example 36); conditions: 18 hours
Procedure: as §5

[7] = 2 treatments, 06.20.1979 and 07.06.1979

N=C(N)N.N=C(N)N.Oc1nnc(O)c2ccccc12 [1,4-dihydroxyphthalazine diguanidine salt]
Dry weight of the callus (Tobacco callus; kinetin 1 ppm): 170.92 mg
Speed of growth (Tobacco callus; kinetin 1 ppm): 98.23
activity at 2 ppm (Tobacco callus; Nicotiana tabacum, 504 h, kinetin 1 ppm = 100, read-out: Speed of growth, Index %): 98.2%
Chlorophyll (Barley; 200 ppm, control 3.7): 9.7 mg
activation at 200 ppm (Barley; Hordeum vulgare, foliar, 96 h, read-out: Promotion): 162%
Chlorophyll (Bean; 200 ppm, control 4.2): 6.5 mg
activation at 200 ppm (Bean; foliar, 96 h, read-out: Promotion): 54%
activation at 200 ppm (Soybean [1]): 67%
activation at 200 ppm (Maize [2]): 12%
P2O5 content (maize for silage; control 7.5): 9.5 % of dry substance
Crude protein content (maize for silage; control 13.2): 16.0 % of dry substance
Green weight (maize for silage; control 310.2): 361.3 q/ha
Crude protein content, increase (maize for silage; in vivo): 21.3%
Green weight, increase (maize for silage; in vivo): 15.5%
P2O5 content, increase (maize for silage; in vivo): 27.2%
Grain yield, increase (hybrid maize): 37.0%
Grain yield (hybrid maize): 181.9 q/ha
Berry yield [3]: 124.23 q/ha
Sugar content [3]: 16.8%
Sugar yield [3]: 15.65 q/ha
Crop yield, increase ([4]; 1 treatment, 07.06.1979): 18.4%
Crop yield ([4]; 1 treatment, 07.06.1979): 17.77 q/ha
Protein nitrogen content (Soybean [5]; control 1.9): 3.9 % of dry substance
Total nitrogen content (Soybean [5]; control 2.6): 4.7 % of dry substance
Protein nitrogen content, increase (Soybean [5]; in vivo): 105.3%
Total nitrogen content, increase (Soybean [5]; in vivo): 81.0%

CCC[n+]1c[nH]c2ccccc21.[Br-] [N--(n-Propyl)-benzimidazolium bromide, N-(n-propyl)-benzimidazolium bromide]
Chlorophyll content (Alfalfa): 0.96 mg
Chlorophyll content (Maize [6]): 0.82 mg
Grain yield, increase (hybrid maize): 12.4%
Grain yield (hybrid maize): 149.3 q/ha
Berry yield, increase [3]: 17.0%
Sugar yield, increase [3]: 17.0%
influence on sugar content, in words [3]: did not influence the sugar content
Berry yield [3]: 176.92 q/ha
Sugar content [3]: 16.7%
Sugar yield [3]: 22.16 q/ha
Berry yield, increase ([3]; listed as N-(n-propyl)-benzimidazolium bromide): 17%
Crop yield, increase ([4]; 1 treatment, 06.20.1979): 18.4%
Crop yield ([4]; 1 treatment, 06.20.1979): 17.77 q/ha
Crop yield, increase ([4]; 1 treatment, 07.06.1979): 13.5%
Crop yield ([4]; 1 treatment, 07.06.1979): 17.03 q/ha
Crop yield, increase [4, 7]: 30.1%
Crop yield [4, 7]: 19.52 q/ha
Fixation of 14CO2 (maize leaves; fresh weight, control 5.72): 10.52 μCi/g
Fixation of 14CO2, % (maize leaves; increase over control): 84%
Incorporation of Gly-2-14C (bean leaves; fresh weight, control 3.52): 4.96 μCi/g
Incorporation of Gly-2-14C, % (bean leaves; increase over control): 41%
